Experimental data from ChEMBL document CHEMBL4396967, “In vitro cytotoxicity screening to identify novel anti-osteosarcoma therapeutics targeting pyruvate dehydrogenase kinase 2” (Bioorg Med Chem Lett, 2019).
Activity calls are given as the source filed them. No cut-off for these calls is given here.

Key:
[1] = tested on: SAOS-2; assay: Antiproliferative activity against human Saos2 cells assessed as reduction in cell viability incubated for 72 hrs by MTT assay; type: functional, cell-based; settings: SAOS-2, 72 h
[2] = species on record: Homo sapiens; assay: Selectivity index, ratio of EC50 of PDK3 (unknown origin) to EC50 of PDK2 (unknown origin)
[3] = molecular target: T1, [Pyruvate dehydrogenase (acetyl-transferring)] kinase isozyme 2, mitochondrial (Homo sapiens, UniProt Q15119); assay: Inhibition of PDK2 (unknown origin) using PDCE1 as substrate incubated for 30 mins by kinase-Glo reagent based luminescence assay
[4] = tested on: SAOS-2; assay: Antiproliferative activity against human Saos2 cells assessed as reduction in cell viability at 10 uM incubated for 72 hrs by MTT assay relative to control; type: functional; settings: SAOS-2, 72 h
[5] = molecular target: T1, [Pyruvate dehydrogenase (acetyl-transferring)] kinase isozyme 2, mitochondrial; assay: Inhibition of PDK2 in human MG63 cells assessed as reduction in lactate formation at 2 to 10 uM incubated for 4 hrs; type: cell-based
[6] = tested on: MG-63; assay: Antiproliferative activity against human MG63 cells assessed as reduction in cell viability incubated for 72 hrs by MTT assay; type: functional, cell-based; settings: MG-63, 72 h
[7] = tested on: MG-63; assay: Antiproliferative activity against human MG63 cells assessed as reduction in cell viability at 10 uM incubated for 72 hrs by MTT assay relative to control; type: functional; settings: MG-63, 72 h
[8] = molecular target: [Pyruvate dehydrogenase (acetyl-transferring)] kinase isozyme 3, mitochondrial (Homo sapiens, UniProt Q15120); assay: Inhibition of PDK3 (unknown origin) using PDCE1 as substrate incubated for 30 mins by kinase-Glo reagent based luminescence assay
Sequence of [Pyruvate dehydrogenase (acetyl-transferring)] kinase isozyme 3, mitochondrial (Q15120 whole entry): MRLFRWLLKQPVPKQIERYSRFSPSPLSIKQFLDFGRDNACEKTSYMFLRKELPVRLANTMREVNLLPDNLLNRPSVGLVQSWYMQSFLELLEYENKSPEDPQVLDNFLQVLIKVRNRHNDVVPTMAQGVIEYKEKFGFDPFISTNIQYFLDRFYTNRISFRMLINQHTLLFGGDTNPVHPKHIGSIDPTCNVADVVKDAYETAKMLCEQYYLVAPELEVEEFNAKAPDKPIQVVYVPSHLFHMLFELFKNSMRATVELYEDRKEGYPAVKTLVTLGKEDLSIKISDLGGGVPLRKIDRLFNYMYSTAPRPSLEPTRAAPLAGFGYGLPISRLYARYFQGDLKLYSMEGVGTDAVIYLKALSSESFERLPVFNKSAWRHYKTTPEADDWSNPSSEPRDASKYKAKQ

[9] = species on record: Homo sapiens; assay: Selectivity index, ratio of EC50 of PDK4 (unknown origin) to EC50 of PDK2 (unknown origin)
[10] = molecular target: T1, [Pyruvate dehydrogenase (acetyl-transferring)] kinase isozyme 2, mitochondrial; assay: Inhibition of PDK2 (unknown origin) using PDCE1 as substrate at 5 uM incubated for 30 mins by kinase-Glo reagent based luminescence assay relative to control
[11] = molecular target: T1, [Pyruvate dehydrogenase (acetyl-transferring)] kinase isozyme 2, mitochondrial; assay: Inhibition of PDK2 in human MG63 cells assessed as reduction in PDC phosphorylation at 2 or 5 uM incubated for 12 hrs by Western blot analysis; type: cell-based
[12] = molecular target: T1, [Pyruvate dehydrogenase (acetyl-transferring)] kinase isozyme 2, mitochondrial; assay: Binding affinity to PDK2 (unknown origin) assessed as dissociation constant by ITC analysis
[13] = molecular target: [Pyruvate dehydrogenase (acetyl-transferring)] kinase isozyme 4, mitochondrial (Homo sapiens, UniProt Q16654); assay: Inhibition of PDK4 (unknown origin) using PDCE1 as substrate incubated for 30 mins by kinase-Glo reagent based luminescence assay
Sequence of [Pyruvate dehydrogenase (acetyl-transferring)] kinase isozyme 4, mitochondrial (Q16654 whole entry): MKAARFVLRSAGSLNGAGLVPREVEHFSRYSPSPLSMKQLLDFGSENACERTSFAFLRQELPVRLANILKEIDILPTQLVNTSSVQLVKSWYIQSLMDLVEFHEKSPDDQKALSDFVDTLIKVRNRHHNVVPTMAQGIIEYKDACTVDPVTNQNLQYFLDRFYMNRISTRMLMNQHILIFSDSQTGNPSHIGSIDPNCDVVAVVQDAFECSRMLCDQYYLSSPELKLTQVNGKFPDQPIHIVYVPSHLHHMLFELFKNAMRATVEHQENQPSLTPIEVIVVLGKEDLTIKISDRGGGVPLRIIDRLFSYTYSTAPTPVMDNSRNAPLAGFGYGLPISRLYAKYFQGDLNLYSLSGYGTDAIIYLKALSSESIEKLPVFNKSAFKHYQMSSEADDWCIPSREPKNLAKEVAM

[14] = species on record: Homo sapiens; assay: Selectivity index, ratio of EC50 of PDK1 (unknown origin) to EC50 of PDK2 (unknown origin)
[15] = molecular target: [Pyruvate dehydrogenase (acetyl-transferring)] kinase isozyme 1, mitochondrial (Homo sapiens, UniProt Q15118); assay: Inhibition of PDK1 (unknown origin) using PDCE1 as substrate incubated for 30 mins by kinase-Glo reagent based luminescence assay
Sequence of [Pyruvate dehydrogenase (acetyl-transferring)] kinase isozyme 1, mitochondrial (Q15118 whole entry, the tested form may be a part): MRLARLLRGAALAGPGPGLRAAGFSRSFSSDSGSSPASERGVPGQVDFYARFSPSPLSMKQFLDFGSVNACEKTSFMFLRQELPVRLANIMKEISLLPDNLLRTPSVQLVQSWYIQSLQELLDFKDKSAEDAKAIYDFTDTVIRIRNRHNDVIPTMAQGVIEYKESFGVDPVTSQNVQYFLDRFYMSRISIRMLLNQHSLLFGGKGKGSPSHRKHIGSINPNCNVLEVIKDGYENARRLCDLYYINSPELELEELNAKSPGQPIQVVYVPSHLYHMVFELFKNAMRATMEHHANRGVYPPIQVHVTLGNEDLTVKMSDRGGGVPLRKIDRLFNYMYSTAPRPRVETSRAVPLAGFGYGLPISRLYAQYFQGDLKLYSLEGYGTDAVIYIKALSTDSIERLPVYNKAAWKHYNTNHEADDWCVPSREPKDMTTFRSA

[16] = molecular target: T1, [Pyruvate dehydrogenase (acetyl-transferring)] kinase isozyme 2, mitochondrial; assay: Inhibition of recombinant human N-terminal His6-tagged SUMO-fused PDK2 expressed in Escherichia coli BL-21 cells preincubated for 15 mins followed by addition of [gamma33-ATP] and measured after 90 secs by Scintillation counting method
[17] = molecular target: T1, [Pyruvate dehydrogenase (acetyl-transferring)] kinase isozyme 2, mitochondrial; assay: Inhibition of PDK2 (unknown origin)

Row | SMILES | inhibition [10] | IC50 [1] [µM] | inhibition at 10 µM [4] [%] | IC50 [6] [µM] | inhibition at 10 µM [7] [%] | further results
1 | CC(C)NC(=O)COc1coc(CN2CCN(c3ccccc3)CC2)cc1=O | 64.3% | 5.3 | 74.5 | 5.8 | 70.6 | EC50 [3]: 3.8 µM
2 | Cc1ccccc1OCC(O)Cn1c(C2CC(=O)N(C(C)(C)C)C2)nc2ccccc21 (centres undefined) | inactive | 8.9 | 59.3 | 7.7 | 72.8 | –
3 | CNC(=O)COc1coc(CN2CCN(c3ccccc3)CC2)cc1=O | 54.1% | 6.7 | 71.2 | 7.9 | 66.1 | EC50 [3]: 5.2 µM
4 | COc1ccc(N2CCn3c2nnc(C(=O)NCCCN(C)C)c3=O)cc1 | inactive | 7.9 | 65.4 | 4.9 | 71.1 | –
5 | Cc1cc(N2CCCCC2)nc(CNC(=O)CNC(=O)c2ccccc2)n1 | 20.1% | 4.8 | 77.6 | 2.7 | 88.5 | –
6 | COc1cccc(C(=O)NCc2nc(N3CCCC3)nc(N3CCOCC3)n2)c1 | inactive | 8.1 | 68.5 | 9.2 | 53.8 | –
7 | O=C(CCn1ccc(=O)[nH]c1=O)N1CCC(Cc2n[nH]c(=O)n2-c2ccccc2F)CC1 | inactive | > 10 | 48.9 | 7.1 | 62.7 | –
8 | O=S(=O)(c1ccc(O)cc1O)N1Cc2cc(O)cc(O)c2C1 | – | – | – | – | – | EC50 [16]: 456 nM
9 | CN(C)C(=O)c1ccc(S(=O)(=O)c2ccc(NC(=O)[C@@](C)(O)C(F)(F)F)c(Cl)c2)cc1 | – | – | – | – | – | EC50 [17]: 80 nM

Continued, in another order:

Row | inhibition [10] | SMILES | IC50 [1] [µM] | inhibition at 10 µM [4] [%] | IC50 [6] [µM] | inhibition at 10 µM [7] [%] | further results
10 | 79.7% | CC(C)NC(=O)COc1coc(CN2CCN(c3ccccc3F)CC2)cc1=O | 5.6 | 75.3 | 4.7 | 78.6 | Ratio EC50 [2]: 21.9; EC50 [3]: 1.1 µM; inhibition [5]: Active; EC50 [8]: 24.5 µM; Ratio EC50 [9]: 60.9; inhibition [11]: Active; Kd [12]: 2350 nM; EC50 [13]: 67 µM; Ratio EC50 [14]: 10.6; EC50 [15]: 11.7 µM
11 | inactive | CSc1nc(N2CCOCC2)c2cnn(CCNC(=O)C3CCCC3)c2n1 | > 10 | 45.1 | > 10 | 53.3 | –
12 | inactive | O=C(C1=C(CO)C(=O)N(CCCN2CCOCC2)[C@H]1c1ccncc1)c1cccs1 | 2 | 79.3 | 1.2 | 86.9 | –
13 | inactive | CN(C)c1cncc(OC2CCN(C(=O)Cc3c[nH]c4ccccc34)C2)n1 (centres undefined) | 2.2 | 87.7 | 2.8 | 83.9 | –
14 | inactive | O=C(CCn1ccc(=O)[nH]c1=O)N1CCN(C2=CC3CCCCC3N=N2)CC1 (centres undefined) | 1.8 | 86.7 | 2.1 | 84.4 | –
15 | 47.5% | O=C(COc1coc(CN2CCN(c3cccc(Cl)c3)CC2)cc1=O)NC1CCCC1 | 7.7 | 65.3 | 8.5 | 62.3 | –
16 | inactive | Cc1cc(=O)n2nc(N3CCN(C(=O)Cc4c[nH]c5ccccc45)CC3)nc2[nH]1 | 7.6 | 75.9 | 9.4 | 60.8 | –
